Assay: Urinary excretion study in rats after oral NS, SF or CNS (LC–MS/MS)
Assay type: in vivo
Conditions: for concentration at 2 h / concentration at 4 h / concentration at 8 h / concentration at 12 h / concentration at 24 h / concentration at 36 h / concentration at 48 h / concentration at 72 h / concentration at 96 h / concentration at 120 h / concentration at 6 h: male, Sprague Dawley, rat, urine, oral; for Accumulative excretion amount / Accumulative excretion percentage / Excretion amount: rat urine
Description: The animal room was set at constant temperature of 20 ± 2 °C with humidity of 50 ± 20% and 12/12 h light/dark cycle.
Eighteen male rats were fasted for 12 h before starting the experiment. The rats were divided into three groups at random (n = 6) and received NS (60 mg/kg), SF (50 mg/kg), and NS (60 mg/kg) + SF (50 mg/kg), respectively, by oral gavage. The rats were placed in separate metabolic cages. The urine samples were collected at 0–2, 2–4, 4–6, 6–8, 8–12, 12–24, 24–36, 36–48, 48–72, 72–96, and 96–120 h. The feces samples were collected at 0–4, 4–8, 8–12, 12–24, 24–36, 36–48, 48–72, 72–96, and 96–120 h. The urine volume was recorded and the dry feces were measured for each collection period. Samples were stored at −80 °C until analysis.
An aliquot of 200 μL urine sample was mixed with 10 μL of IS and evaporated to dryness with a ZLS-2 vacuum centrifugal concentrator (Herexi Co., Ltd., Changsha, Hunan, China). The residue was reconstituted in 100 μL of 50% methanol vortexed for 2 min and centrifuged at 12,000 rpm for 15 min. Finally, a 1 μL aliquot was injected for LC–MS analysis.
Ultra fast liquid chromatography (UFLC) analysis was performed using a Shimadzu UFLC system (DGU-20A3R Degasser; LC-20AD pump; SIL-20AXR Autosampler; CTO-20AC Column Oven) (Nakagyo-Ku, Koyoto, Japan). […] Because of the different endogenous substances in the urine and feces samples, different elution gradients were used to alleviate the matrix effects for the analytes.
The mass spectrometric detection was performed on an ABSciex 4500 Qtrap mass spectrometer (ABSciex, Foster City, CA, USA) equipped with a negative electrospray ionization (ESI) interface using multiple reaction monitoring (MRM). The MS parameters were optimized under the selected ion monitoring conditions as follows: curtain gas, 35 psi; ionspray voltage, 4500 V; turbo gas temperature, 450 °C; GS1, 45 psi; GS2, 45 psi. All data were acquired and analyzed by Analyst software (Versions 1.6.2) from ABSciex.
The accumulative excretion percentage was calculated for each analyte as follows. Excretion at time (t) = [concentration of the analyte (ng/mL) at t] × total urine (or feces) volume (mL) at t. The cumulative excretion up to time t (mg) was expressed as a percent (%) cumulative excretion by dividing by the total amount of the analyte ingested (mg): % Cumulative Excretion = 100 × (Σt excretiont) total ingested.

- concentration at 2 h (60 mg/kg, oral NS 60 mg/kg, 2 h): 115 ± 284 ng/mL
- concentration at 4 h (60 mg/kg, oral NS 60 mg/kg, 4 h): 245 ± 450 ng/mL
- concentration at 8 h (60 mg/kg, oral NS 60 mg/kg, 8 h): 140 ± 196 ng/mL
- concentration at 12 h (60 mg/kg, oral NS 60 mg/kg, 12 h): 214 ± 344 ng/mL
- concentration at 24 h (60 mg/kg, oral NS 60 mg/kg, 24 h): 240 ± 553 ng/mL
- concentration at 36 h (60 mg/kg, oral NS 60 mg/kg, 36 h): 61 ± 54 ng/mL
- concentration at 48 h (60 mg/kg, oral NS 60 mg/kg, 48 h): 142 ± 344 ng/mL
- concentration at 72 h (60 mg/kg, oral NS 60 mg/kg, 72 h): 84 ± 195 ng/mL
- concentration at 96 h (60 mg/kg, oral NS 60 mg/kg, 96 h): 45 ± 104 ng/mL
- concentration at 120 h (60 mg/kg, oral NS 60 mg/kg, 120 h): 25 ± 62 ng/mL
- concentration at 2 h (oral CNS 110 mg/kg, 2 h): 54 ± 73 ng/mL
- concentration at 4 h (oral CNS 110 mg/kg, 4 h): 27 ± 41 ng/mL
- concentration at 6 h (oral CNS 110 mg/kg, 6 h): 111 ± 121 ng/mL
- concentration at 8 h (oral CNS 110 mg/kg, 8 h): 105 ± 100 ng/mL
- concentration at 12 h (oral CNS 110 mg/kg, 12 h): 120 ± 134 ng/mL
- concentration at 24 h (oral CNS 110 mg/kg, 24 h): 72 ± 50 ng/mL
- concentration at 36 h (oral CNS 110 mg/kg, 36 h): 138 ± 144 ng/mL
- concentration at 48 h (oral CNS 110 mg/kg, 48 h): 51 ± 60 ng/mL
- concentration at 72 h (oral CNS 110 mg/kg, 72 h): 33 ± 28 ng/mL
- concentration at 96 h (oral CNS 110 mg/kg, 96 h): 19 ± 14 ng/mL
- concentration at 120 h (oral CNS 110 mg/kg, 120 h): 14 ± 12 ng/mL
- concentration at 6 h (oral NS 60 mg/kg, 6 h): 140 ± 244 ng/mL
- Accumulative excretion amount (oral CNS 110 mg/kg, 2 h): 0.075 ± 0.093 µg
- Accumulative excretion percentage (oral CNS 110 mg/kg, 2 h): 0.002±0.002%
- Excretion amount (oral CNS 110 mg/kg, 2 h): 0.075 ± 0.093 µg
- Accumulative excretion amount (oral CNS 110 mg/kg, 4 h): 0.106 ± 0.086 µg
- Accumulative excretion percentage (oral CNS 110 mg/kg, 4 h): 0.003±0.002%
- Excretion amount (oral CNS 110 mg/kg, 4 h): 0.044 ± 0.050 µg
- Accumulative excretion amount (oral CNS 110 mg/kg, 6 h): 0.218 ± 0.166 µg
- Accumulative excretion percentage (oral CNS 110 mg/kg, 6 h): 0.006±0.004%
- Excretion amount (oral CNS 110 mg/kg, 6 h): 0.158 ± 0.142 µg
- Accumulative excretion amount (oral CNS 110 mg/kg, 8 h): 0.339 ± 0.213 µg
- Accumulative excretion percentage (oral CNS 110 mg/kg, 8 h): 0.009±0.006%
- Excretion amount (oral CNS 110 mg/kg, 8 h): 0.212 ± 0.169 µg
- Accumulative excretion amount (oral CNS 110 mg/kg, 12 h): 0.472 ± 0.310 µg
- Accumulative excretion percentage (oral CNS 110 mg/kg, 12 h): 0.013±0.008%
- Excretion amount (oral CNS 110 mg/kg, 12 h): 0.154 ± 0.128 µg
- Accumulative excretion amount (oral CNS 110 mg/kg, 24 h): 0.859 ± 0.527 µg
- Accumulative excretion percentage (oral CNS 110 mg/kg, 24 h): 0.023±0.014%
- Excretion amount (oral CNS 110 mg/kg, 24 h): 0.388 ± 0.391 µg
- Accumulative excretion amount (oral CNS 110 mg/kg, 36 h): 1.056 ± 0.587 µg
- Accumulative excretion percentage (oral CNS 110 mg/kg, 36 h): 0.028±0.016%
- Excretion amount (oral CNS 110 mg/kg, 36 h): 0.197 ± 0.129 µg
- Accumulative excretion amount (oral CNS 110 mg/kg, 48 h): 1.303 ± 0.684 µg
- Accumulative excretion percentage (oral CNS 110 mg/kg, 48 h): 0.035±0.018%
- Excretion amount (oral CNS 110 mg/kg, 48 h): 0.247 ± 0.216 µg
- Accumulative excretion amount (oral CNS 110 mg/kg, 72 h): 1.373 ± 0.705 µg
- Accumulative excretion percentage (oral CNS 110 mg/kg, 72 h): 0.037±0.019%
- Excretion amount (oral CNS 110 mg/kg, 72 h): 0.070 ± 0.060 µg
- Accumulative excretion amount (oral CNS 110 mg/kg, 96 h): 1.414 ± 0.715 µg
- Accumulative excretion percentage (oral CNS 110 mg/kg, 96 h): 0.038±0.019%
- Excretion amount (oral CNS 110 mg/kg, 96 h): 0.040 ± 0.031 µg
- Accumulative excretion amount (oral CNS 110 mg/kg, 120 h): 1.436 ± 0.726 µg
- Accumulative excretion percentage (oral CNS 110 mg/kg, 120 h): 0.038±0.019%
- Excretion amount (oral CNS 110 mg/kg, 120 h): 0.022 ± 0.025 µg
- Accumulative excretion amount (oral NS 60 mg/kg, 2 h): 0.075 ± 0.063 µg
- Accumulative excretion percentage (oral NS 60 mg/kg, 2 h): 0.002±0.001%
- Excretion amount (oral NS 60 mg/kg, 2 h): 0.075 ± 0.063 µg
- Accumulative excretion amount (oral NS 60 mg/kg, 4 h): 0.574 ± 1.167 µg
- Accumulative excretion percentage (oral NS 60 mg/kg, 4 h): 0.013±0.027%
- Excretion amount (oral NS 60 mg/kg, 4 h): 0.872 ± 1.518 µg
- Accumulative excretion amount (oral NS 60 mg/kg, 6 h): 0.798 ± 1.077 µg
- Accumulative excretion percentage (oral NS 60 mg/kg, 6 h): 0.019±0.025%
- Excretion amount (oral NS 60 mg/kg, 6 h): 0.262 ± 0.207 µg
- Accumulative excretion amount (oral NS 60 mg/kg, 8 h): 0.863 ± 1.044 µg
- Accumulative excretion percentage (oral NS 60 mg/kg, 8 h): 0.021±0.025%
- Excretion amount (oral NS 60 mg/kg, 8 h): 0.152 ± 0.084 µg
- Accumulative excretion amount (oral NS 60 mg/kg, 12 h): 1.139 ± 1.140 µg
- Accumulative excretion percentage (oral NS 60 mg/kg, 12 h): 0.027±0.027%
- Excretion amount (oral NS 60 mg/kg, 12 h): 0.276 ± 0.142 µg
- Accumulative excretion amount (oral NS 60 mg/kg, 24 h): 1.881 ± 1.352 µg
- Accumulative excretion percentage (oral NS 60 mg/kg, 24 h): 0.044±0.032%
- Excretion amount (oral NS 60 mg/kg, 24 h): 0.742 ± 0.289 µg
- Accumulative excretion amount (oral NS 60 mg/kg, 36 h): 2.275 ± 1.435 µg
- Accumulative excretion percentage (oral NS 60 mg/kg, 36 h): 0.053±0.033%
- Excretion amount (oral NS 60 mg/kg, 36 h): 0.394 ± 0.221 µg
- Accumulative excretion amount (oral NS 60 mg/kg, 48 h): 2.476 ± 1.415 µg
- Accumulative excretion percentage (oral NS 60 mg/kg, 48 h): 0.058±0.033%
- Excretion amount (oral NS 60 mg/kg, 48 h): 0.201 ± 0.117 µg
- Accumulative excretion amount (oral NS 60 mg/kg, 72 h): 2.506 ± 1.429 µg
- Accumulative excretion percentage (oral NS 60 mg/kg, 72 h): 0.058±0.033%
- Excretion amount (oral NS 60 mg/kg, 72 h): 0.030 ± 0.020 µg
- Accumulative excretion amount (oral NS 60 mg/kg, 96 h): 2.521 ± 1.438 µg
- Accumulative excretion percentage (oral NS 60 mg/kg, 96 h): 0.060±0.034%
- Excretion amount (oral NS 60 mg/kg, 96 h): 0.016 ± 0.011 µg
- Accumulative excretion amount (oral NS 60 mg/kg, 120 h): 2.528 ± 1.439 µg
- Accumulative excretion percentage (oral NS 60 mg/kg, 120 h): 0.060±0.034%
- Excretion amount (oral NS 60 mg/kg, 120 h): 0.006 ± 0.003 µg
Structure (SMILES): CC(C)=CCC[C@](C)(O[C@@H]1O[C@H](CO[C@@H]2O[C@H](CO)[C@@H](O)[C@H](O)[C@H]2O)[C@@H](O)[C@H](O)[C@H]1O)[C@H]1CC[C@]2(C)[C@@H]1[C@H](O)C[C@@H]1[C@@]3(C)CC[C@H](O[C@@H]4O[C@H](CO)[C@@H](O)[C@H](O)[C@H]4O[C@@H]4O[C@H](CO)[C@@H](O)[C@H](O)[C@H]4O)C(C)(C)[C@@H]3CC[C@]12C [ginsenoside Rb1]
